Results on 37 compounds are retold here after US5817651A, “3-arylcarbonyl-1-(C-attached-N-heteryl)-1H-indoles” (Sanofi, priority 1997, dated 1998).

Counter-ions that a name gives are not always drawn. Like-named read-outs stand apart in the source and are kept apart here.

Experiment [1] has as its system acetylcholine-induced abdominal constriction. The experiment can be described thus: acetylcholine-induced abdominal constriction test (ACH). In kind it is in vivo. The conditions noted are these: mice; for inhibition in vivo at 100 mg/kg / ED50: Mus musculus; for inhibition in vivo at 100 mg/kg: dose level 100, read-out: ACH percent inhibition at dose 100. From the text:
J. Pharmacol. Chemotherap. 32, 295 (1968); a modification of the anti-bradykinin test, which is also a primary analgesic screening procedure, described by Berkowitz et al., J. Pharmacol. Exptl. Therap. 177, 500-508 (1971), Blane et al., J. Pharm. Pharmacol. 19, 367-373 (1967), Botha et al., Eur. J. Pharmacol. 6, 312-321 (1969) and Deffenu et al., J. Pharm. Pharmacol. 18, 135 (1966); and the Randall-Selitto analgesic test described by Randall and Selitto, Arch. Int. Pharmacodyn., 111, 409-419 (1957).
Data in the developing adjuvant arthritis (AA) and plasma fibronectin (FN) assays are expressed as percent inhibition, i.e. inhibition of non-injected paw inflammation (NIP) and injected paw (RPV) and lowering of plasma fibronectin, the asterisks * and ** indicating statistical significance at the p<0.01 and p<0.05 levels, respectively. […] Non-statistically significant results are recorded as "------ ". In the acetylcholine-induced abdominal constriction test, the test compounds were administered either as suspensions in gum tragacanth (GT) or as aqueous solutions prepared by addition of just sufficient dilute aqueous methanesulfonic acid (MS) or dilute aqueous lactic acid (LA) to dissolve the compound. The compounds are identified by the example number above where their preparations are described. All data in the anti-bradykinin, rat writhing and Randall-Selitto tests were obtained on oral administration.

Experiment [2] concerns adjuvant induced arthritis. The experiment can be described thus: developing adjuvant arthritis (AA) assay. In kind it is in vivo. Also on record: key: Non-statistically significant results are recorded as "------ ". The conditions noted are these: arthritic rats; printed * = p<0.01, ** = p<0.05. As for the experimental part: Antirheumatic and anti-inflammatory activities of the compounds of the invention were determined using the developing adjuvant arthritis assay in rats and the plasma fibronectin assay in arthritic rats. The developing adjuvant arthritis assay was used in conjunction with the plasma fibronectin assay as a primary screening method in the evaluation of compounds for potential use as disease modifying anti-rheumatic drugs. The procedure used to induce arthritis in rats is a modification of the methods published by Pearson, J. Chron. Dis. 16, 863-874 (1973) and by Glenn et al., Amer. J. Vet. Res. 1180-1193 (1965). Adjuvant induced arthritis bears many of the traits of rheumatoid arthritis. It is a chronic, progressive, deforming arthritis of the peripheral joints, with a primary mononuclear cell response consisting of bone and joint space invasion by pannus. In order to detect disease modifying anti-rheumatic drug activity, drug treatment is started before the disease has become irrevocably established. Since such drugs are not designed to be administered prophylactically, drug treatment of adjuvant arthritis is initiated at a time when the disease is developing but is not yet irreversible. Animals develop significant systemic arthritic disease which can be measured by swelling of the non-injected rear paw (NIP) 15 to 20 days following an initial injection on day 1 of complete Freund's adjuvant into the right hindfoot paw.
Data in the developing adjuvant arthritis (AA) and plasma fibronectin (FN) assays are expressed as percent inhibition, i.e. inhibition of non-injected paw inflammation (NIP) and injected paw (RPV) and lowering of plasma fibronectin, the asterisks * and ** indicating statistical significance at the p<0.01 and p<0.05 levels, respectively. Compounds are considered active at p<0.05 level. Non-statistically significant results are recorded as "------ ". In the acetylcholine-induced abdominal constriction test, the test compounds were administered either as suspensions in gum tragacanth (GT) or as aqueous solutions prepared by addition of just sufficient dilute aqueous methanesulfonic acid (MS) or dilute aqueous lactic acid (LA) to dissolve the compound. The compounds are identified by the example number above where their preparations are described. All data in the anti-bradykinin, rat writhing and Randall-Selitto tests were obtained on oral administration.

The mark [3] stands for this setting: Table 9, Examples, no route marked in the cell, read-out: ACH ED50.

With `Cc1cc2ccccc2n1CC1CN(C)CCO1` (racemic) [Preparation 1A, 1-[(4-methyl-2-morpholinyl)methyl]-2-methyl-1H-indole], the inhibition in vivo at 100 mg/kg in experiment [1] (Table 10, Prepn. No.) is 10%.

A word on the ED50: it is the midpoint of the dose-response relation. With `Cc1c(C(=O)c2ccccc2F)c2ccccc2n1C[C@@H]1CC[C@@H](C)N1C` (relative stereo) [Example 1AD], the ED50 in experiment [1] (setting [3]) came out at 34 mg/kg.

For `COc1ccc(C(=O)c2c(C)n(C[C@@H]3CC[C@@H](C)N3Cc3ccccc3)c3ccccc23)cc1` (relative stereo) [Example 1AE], the inhibition in vivo at 100 mg/kg in experiment [1] (Table 9) worked out at 30%.

Take `COc1ccc(C(=O)c2c(C)n(C3CCCN(C)C3)c3ccccc23)cc1` (centres unmarked) [2AG(b)]: in experiment [1] (setting [3]), the ED50 was found to be 30 mg/kg.

In the case of `COc1ccc(C(=O)c2c(C)n(CC3CCCN3Cc3ccccc3)c3ccccc23)cc1` (centres unmarked) [Example 1AG], in experiment [1] (Table 9), the inhibition in vivo at 100 mg/kg worked out at 0%.

With `COc1ccc(C(=O)c2c(C)n(C3CCN(C)CC3)c3ccccc23)cc1` [Example 1B], the 50% effective dose (ED50) in experiment [1] (setting [3]) was 69 mg/kg. In experiment [2], the “NIP: percent inhibition of non-injected paw inflammation” value turned out to be 88% and the “RPV: percent inhibition of injected paw” value stood at 65%.

In the case of `Cc1c(C(=O)c2ccc(O)cc2)c2ccccc2n1CC1CN(C)CCO1` (centres unmarked) [Example 1D], the inhibition in vivo at 100 mg/kg in experiment [1] (Table 9) is 10%.

In the case of `COc1ccc(C(=O)c2cn(CC3CCCN(C)C3)c3ccc(F)cc23)cc1` (centres unmarked) [Example 1H], in experiment [1] (Table 9), the inhibition in vivo at 100 mg/kg came out at 20%. In experiment [2], the “NIP: percent inhibition of non-injected paw inflammation” value was determined as 92% and the “RPV: percent inhibition of injected paw” value is on record as 63%.

Turning to `Cc1c(C(=O)c2ccc(Cl)cc2)c2ccccc2n1CC1CCCN(C)C1` (centres unmarked) [Example 1L], in experiment [1] (setting [3]), the 50% effective dose (ED50) worked out at 62 mg/kg. Besides, in experiment [2], the “NIP: percent inhibition of non-injected paw inflammation” value was 83% and the “RPV: percent inhibition of injected paw” value is reported as 60%.

With `Cc1c(C(=O)c2cccc(F)c2)c2ccccc2n1CC1CCCN(C)C1` (centres unmarked) [Example 1O], in experiment [1] (setting [3]), the ED50 was 71 mg/kg.

On to `CN1CCCC(Cn2cc(C(=O)c3ccccc3)c3ccccc32)C1` (centres unmarked) [Example 1Q], for which the ED50 in experiment [1] (setting [3]) is 45 mg/kg.

Consider `CN1CCCCC(n2cc(C(=O)c3cccc4ccccc34)c3ccccc32)C1` (centres unmarked) [Example 1R], for which the inhibition in vivo at 100 mg/kg in experiment [1] (Table 9) was 20%.

`COc1ccc(C(=O)c2c(C(C)C)n(CC3CCCN(C)C3)c3ccc(F)cc23)cc1` (centres unmarked) [Example 1S]: the ED50 in experiment [1] (setting [3]) stood at 21 mg/kg. Further, in experiment [2], the “NIP: percent inhibition of non-injected paw inflammation” value amounted to 73% and the “RPV: percent inhibition of injected paw” value came to 36%.

As for `COc1cccc(C(=O)c2c(C)n(CC3CCCN(C)C3)c3ccccc23)c1` (centres unmarked) [Example 1T], in experiment [1] (setting [3]), the ED50 is 64 mg/kg.

For the compound `COc1ccc(C(=O)c2c(C(C)C)n(CC3CCCN(C)C3)c3ccccc23)cc1` (centres unmarked) [Example 1U], the median effective dose (ED50) in experiment [1] (setting [3]) is 22 mg/kg.

For the compound `COc1ccc(C(=O)c2c(C)n(C3CCN(Cc4ccccc4)C3)c3ccccc23)cc1` (centres unmarked) [Example 1W], in experiment [1] (Table 9), the inhibition in vivo at 100 mg/kg was 35%.

Consider `COc1ccc(C(=O)c2c(C)n(CCC3CCCN3C)c3ccc(F)cc23)cc1` (centres unmarked) [Example 2A, 5-fluoro-2-methyl-1-[2-(1-methyl-2-pyrrolidinyl)ethyl]-3-(4-methoxybenzoyl)-1H-indole hydrochloride hemihydrate], for which, in experiment [1] (setting [3]), the ED50 turned out to be 32 mg/kg. In experiment [2], the “NIP: percent inhibition of non-injected paw inflammation” value is 86% and the “RPV: percent inhibition of injected paw” value is given as 69%.

With `CN1CCCC(Cn2cc(C(=O)c3ccccc3F)c3ccccc32)C1` (centres unmarked) [Example 2AA], in experiment [1] (setting [3]), the ED50 was 65 mg/kg.

In the case of `CN1CCCCC(n2cc(C(=O)c3ccccc3F)c3ccccc32)C1` (centres unmarked) [Example 2AD], the inhibition in vivo at 100 mg/kg in experiment [1] (Table 9) came out at 20%.

As for `COc1ccc(C(=O)c2c(C)n(CC3CN(C(c4ccccc4)c4ccccc4)C3)c3ccccc23)cc1` [Example 2AL], the inhibition in vivo at 100 mg/kg in experiment [1] (Table 9) was found to be 20%.

With `Cc1c(C(=O)c2ccc([N+](=O)[O-])cc2)c2ccccc2n1CC1CCCN(C)C1` (centres unmarked) [Example 2AN], in experiment [1] (Table 9), the inhibition in vivo at 100 mg/kg is 30%.

Regarding `COc1ccc(C(=O)c2cn(CCC3CCCN3C)c3ccc(F)cc23)cc1` (centres unmarked) [Example 2C], in experiment [1] (setting [3]), the median effective dose (ED50) was 49 mg/kg. For the same compound, in experiment [2], the “NIP: percent inhibition of non-injected paw inflammation” value is 55% and the “RPV: percent inhibition of injected paw” value is 27%.

In the case of `CCc1ccc(C(=O)c2c(C)n(CC3CCCN(C)C3)c3ccccc23)cc1` (centres unmarked) [Example 2N], the median effective dose (ED50) in experiment [1] (setting [3]) is 46 mg/kg.

Turning to `COc1ccc(C(=O)c2cn(CCC3CCCN3C)c3ccccc23)cc1` (centres unmarked) [Example 2S], in experiment [1] (setting [3]), the 50% effective dose (ED50) was determined as 50 mg/kg. In experiment [2], the “NIP: percent inhibition of non-injected paw inflammation” value worked out at 33% and the “RPV: percent inhibition of injected paw” value was found to be 21%.

Consider `COc1ccc(C(=O)c2c(C)n(CC3CCCN(Cc4ccccc4)C3)c3ccccc23)cc1` (centres unmarked) [Example 2T], for which the “ACH percent inhibition at dose 300” value in experiment [1] (Table 9, dose level 300) was 20%. Also, in experiment [2], the “NIP: percent inhibition of non-injected paw inflammation” value worked out at 92% and the “RPV: percent inhibition of injected paw” value was 68%.

On to `CCN1CCCC1Cn1c(C)c(C(=O)c2ccc(OC)cc2)c2ccccc21` (centres unmarked) [Example 2Y], for which the ED50 in experiment [1] (setting [3]) is 43 mg/kg. Besides, in experiment [2], the “NIP: percent inhibition of non-injected paw inflammation” value is listed as 46% and the “RPV: percent inhibition of injected paw” value is 15%.

As to `COc1ccc(C(=O)c2c(C)n(C3CSCCN(C)C3)c3ccccc23)cc1` (centres unmarked) [Example 3B], the inhibition in vivo at 100 mg/kg in experiment [1] (Table 9) was found to be 60%.

Regarding `COc1ccc(C(=O)c2c(C)n(CC3CN(C)CCS3)c3ccccc23)cc1` (centres unmarked) [Example 3C], the ED50 in experiment [1] (setting [3]) came out at 30 mg/kg.

For `CN1CCCC(n2cc(C(=O)c3ccccc3F)c3ccccc32)C1` (centres unmarked) [Example 4D], the “ACH percent inhibition at dose 10” value in experiment [1] (Table 9, dose level 10) was found to be 65%. The “ACH percent inhibition at dose 30” value in experiment [1] (Table 9, dose level 30) was found to be 50%. Also, in experiment [2], the “NIP: percent inhibition of non-injected paw inflammation” value turned out to be 80% and the “RPV: percent inhibition of injected paw” value is reported as “--”.

On to `CC(C1CCCNC1)n1cc(C(=O)c2ccccc2F)c2ccccc21` (centres unmarked) [Example 4E], for which the ED50 in experiment [1] (setting [3]) came out at 43 mg/kg.

On to `COc1ccc(C(=O)c2c(C)n(CC3C[S+]([O-])CCN3C)c3ccccc23)cc1` (centres unmarked) [Example 6B, 2-methyl-3-(4-methoxybenzoyl)-1-[(4-methyl-3-thiomorpholinyl)methyl]-1H-indole-S-oxide], for which, in experiment [1] (setting [3]), the ED50 worked out at 5 mg/kg.

Turning to `CCCN1CCCC(Cn2c(C)c(C(=O)c3ccc(OC)cc3)c3ccccc32)C1` (centres unmarked) [Example 7, 2-methyl-3-(4-methoxybenzoyl)-1-[(1-propyl-3-piperidinyl)methyl]-1H-indolehydrochloride], in experiment [1] (setting [3]), the 50% effective dose (ED50) turned out to be 18 mg/kg.

With `COc1ccc(C(=O)c2c(C)n(C3CCNC3)c3ccccc23)cc1` (centres unmarked) [Example 8B], the 50% effective dose (ED50) in experiment [1] (setting [3]) amounted to 29 mg/kg.

Turning to `COc1ccc(C(=O)c2c(C)n(CC3COCCN3C)c3ccccc23)cc1` (centres unmarked) [Example 10B, 2-methyl-3-(4-methoxybenzoyl)-1-[(4-methyl-3-morpholinyl)methyl]-1H-indole], in experiment [1] (setting [3]), the 50% effective dose (ED50) turned out to be 29 mg/kg.

As for `CN1CCCC(Cn2ccc3cc(F)ccc32)C1` (centres unmarked) [Preparation 1D, 1-[(1-methyl-3-piperidinyl)methyl]-5-fluoro-1H-indole], the median effective dose (ED50) in experiment [1] (Table 10, Prepn. No. (intermediates of formula II), no route marked, read-out: ACH ED50) worked out at 65 mg/kg.

As for `Cc1cc2ccccc2n1CC1CCCN(C)C1.Cl` (centres unmarked) [Preparation 1P, 2-methyl-1-[(1-methyl-3-piperidinyl)methyl]-1H-indole hydrochloride], the ED50 in experiment [1] (iv, Table 10, Prepn. No., i.v., read-out: ACH ED50 (i.v.)) worked out at 9.7 mg/kg; in experiment [1] (po, Table 10, Prepn. No., p.o., read-out: ACH ED50 (p.o.)), 66 mg/kg.

In the case of `Cc1cc2ccccc2n1CCC1CCCCN1C` (centres unmarked) [Preparation 1Q, 2-methyl-1-[2-(1-methyl-2-piperidinyl)-ethyl]-1H-indole], the inhibition in vivo at 100 mg/kg in experiment [1] (Table 10, Prepn. No.) stood at 30%.
